In patent US20230000936A1, “A[…] ITCHING […] C[…]” (Demetrix, Inc., priority 2021, published 2023):
Entries after “also recorded” stand apart in the source; their conditions may differ.

How the values were obtained:
Type in all cases: cell-based
[1] = target: T1, CHRM2 (Homo sapiens, UniProt P08172); test: IC50 antagonist activity screen, PathHunter β-Arrestin, CHRM2; details: maximum of IC50 curve
T1 sequence (P08172 1-466): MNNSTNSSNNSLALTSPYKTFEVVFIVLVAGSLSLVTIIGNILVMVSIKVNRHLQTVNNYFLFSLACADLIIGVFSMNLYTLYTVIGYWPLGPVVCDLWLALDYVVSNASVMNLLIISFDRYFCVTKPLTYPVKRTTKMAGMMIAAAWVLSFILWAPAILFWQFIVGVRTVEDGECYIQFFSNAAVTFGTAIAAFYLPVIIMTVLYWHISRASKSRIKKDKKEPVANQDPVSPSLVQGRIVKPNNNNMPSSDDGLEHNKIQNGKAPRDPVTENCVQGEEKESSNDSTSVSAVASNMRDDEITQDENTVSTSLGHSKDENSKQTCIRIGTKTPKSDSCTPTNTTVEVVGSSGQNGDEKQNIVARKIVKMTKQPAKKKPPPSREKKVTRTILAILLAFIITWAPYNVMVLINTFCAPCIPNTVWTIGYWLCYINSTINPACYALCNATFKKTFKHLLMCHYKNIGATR
Description: (§1) In each of the antagonist assays, PathHunter® cell lines were removed from a freezer stock and seeded at a volume of 20 μL into white walled, 384-well microplates and incubated at 37° C. Each cell was pre-incubated with an antagonist followed by an agonist challenge at the EC80 concentration. Cells were then diluted to generate a 5× sample in assay buffer. 5 μL of the 5× sample was then added to cells and incubated at 37° C. for 30 minutes. Finally, 5 μL of 6×EC80 agonist in assay buffer were added to the cells and incubated at 37° C. for 90 minutes or 180 minutes. The assay signal was generated through addition of 12.5 μL or 15 μL (50% V/V) of a detection reagent cocktail followed by a one hour incubation time at room temperature. Microplates were read following signal generation with a PerkinElmer Envision™ (PerkinElmer Inc., Waltham, Mass.) for chemiluminescent signal detection. Reactivity was analyzed using the CBIS data analysis suite (ChemInnovation, CA) where RLU refers to the raw measured values. The percent inhibition was calculated using the formula: % Inhibition=100%*(1−mean RLU of test sample−mean RLU of control)/(mean RLU of EC80 control−mean RLU of vehicle control).
(§2) IC50 curves were measured using the same GPCR assay, PathHunter® β-Arrestin from Eurofins DiscoverX Products (Fremont, Calif.), as the GPCR reactivity screen. As used herein, strong activity against a receptor is considered a maximum activity of about 42% or higher. Higher results for antagonism against CHRM2, EDGE, and MRGPRX2 are considered better. It is further considered better when a cannabinoid inhibits more than one of the receptors.

[2] = target: T2, MRGPRX2 (Homo sapiens, UniProt Q96LB1); test: IC50 antagonist activity screen, PathHunter β-Arrestin, MRGPRX2; details: maximum of IC50 curve
T2 sequence (Q96LB1 1-330): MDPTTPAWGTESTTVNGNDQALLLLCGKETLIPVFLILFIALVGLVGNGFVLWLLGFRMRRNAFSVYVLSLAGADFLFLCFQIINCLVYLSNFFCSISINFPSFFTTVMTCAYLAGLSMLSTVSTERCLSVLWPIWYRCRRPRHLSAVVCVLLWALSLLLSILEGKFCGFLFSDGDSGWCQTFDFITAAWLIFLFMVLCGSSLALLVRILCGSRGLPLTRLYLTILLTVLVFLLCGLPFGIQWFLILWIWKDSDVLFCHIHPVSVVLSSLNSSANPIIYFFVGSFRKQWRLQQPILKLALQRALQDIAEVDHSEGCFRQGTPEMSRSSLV
Description: as §1, §2

[3] = target: T3, EDG3 (Homo sapiens, UniProt Q99500); test: IC50 antagonist activity screen, PathHunter β-Arrestin, EDG3; details: maximum of IC50 curve
T3 sequence (Q99500 whole entry): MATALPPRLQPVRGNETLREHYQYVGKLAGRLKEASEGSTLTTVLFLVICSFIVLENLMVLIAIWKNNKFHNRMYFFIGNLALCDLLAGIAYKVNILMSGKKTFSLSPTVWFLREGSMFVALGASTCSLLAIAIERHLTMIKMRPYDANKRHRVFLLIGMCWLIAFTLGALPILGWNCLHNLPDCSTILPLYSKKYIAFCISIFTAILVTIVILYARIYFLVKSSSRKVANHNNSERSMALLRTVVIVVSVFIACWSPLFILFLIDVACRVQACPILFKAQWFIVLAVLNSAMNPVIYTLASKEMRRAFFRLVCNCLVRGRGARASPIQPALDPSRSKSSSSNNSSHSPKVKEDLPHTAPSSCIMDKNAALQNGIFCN
Description: as §1, §2

[4] = target: T1, CHRM2; test: GPCR reactivity screen, PathHunter β-Arrestin, agonist assay CHRM2; set-up: concentration or dose not given beside the values; details: agonist mode; control acetylcholine
Description: (§3) To evaluate the role specific cannabinoid compounds play in the neurological signaling pathway for itching, a GPCR reactivity assay was performed to determine the reactivity of 19 cannabinoid compounds to each of CHRM2, EDG3, and MRGPRX2. The evaluated cannabinoid compounds were: CBN, THCV, CBDVA, CBG, CBL, CBC, CBDV, CBDA, CBD, CBGA, (+)-CBD, CBG-C4, CBD-C1, CBD-C2, CBGV, CBGA-C4, CBGVA, CBCA, and CBLA. Acetylcholine was used as the control for CHRM2, sphingosine-1-phosphate was used as the control for EDG3; and cortistatin 14 was used as the control for MRGPRX2.
(§4) A total of six assays were run. Specifically, agonist and antagonist assays were run for each of CHRM2, EDG3, and MRGPRX2. In each of the three agonist assays, PathHunter® cell lines were removed from a freezer stock and seeded at a volume of 20 μL into white walled, 384-well microplates and incubated at 37° C. Each cell was incubated with a sample to induce a response and then diluted to generate a 5× sample in assay buffer. 5 μL of the 5× sample was then added to cells and incubated at 37° C. for 90 or 180 minutes. The final assay concentration was 1%. The assay signal was generated through addition of 12.5 μL or 15 μL (50% V/V) of a detection reagent cocktail followed by a one hour incubation time at room temperature. Microplates were read following signal generation with a PerkinElmer Envision™ (PerkinElmer Inc., Waltham, Mass.) for chemiluminescent signal detection. Reactivity was analyzed using the CBIS data analysis suite (ChemInnovation, CA) where RLU refers to the raw measured values. The percent activity was then calculated using the formula: % Activity=100%*(mean RLU of test sample−mean RLU of control)/(mean max control ligand−mean RLU of vehicle control).
(§5) As used herein, strong activity against a receptor is considered a percent activity of about 42% or higher. Higher results for antagonism against CHRM2, EDGE, and MRGPRX2 are considered better. It is further considered better when a cannabinoid inhibits more than one of the receptors.

[5] = target: T2, MRGPRX2; test: GPCR reactivity screen, PathHunter β-Arrestin, agonist assay MRGPRX2; details: agonist mode; control cortistatin 14
Description: as §3, §4, §5

[6] = target: T3, EDG3; test: GPCR reactivity screen, PathHunter β-Arrestin, antagonist assay EDG3; details: for antagonist activity against EDG3 (in words): GPCR reactivity screen; for EDG3 (Antagonist) percent inhibition: antagonist mode, agonist challenge at EC80
Description: as §3, §1, §5

[7] = target: T3, EDG3; test: GPCR reactivity screen, PathHunter β-Arrestin, agonist assay EDG3; set-up: concentration or dose not given beside the values; details: agonist mode; control sphingosine-1-phosphate
Description: as §3, §4, §5

[8] = target: T1, CHRM2; test: GPCR reactivity screen, PathHunter β-Arrestin, antagonist assay CHRM2; details: for antagonist activity against CHRM2 (in words): GPCR reactivity screen; for CHRM2 (Antagonist) percent inhibition: antagonist mode, agonist challenge at EC80
Description: as §3, §1, §5

[9] = target: T2, MRGPRX2; test: GPCR reactivity screen, PathHunter β-Arrestin, antagonist assay MRGPRX2; details: for antagonist activity against MRGPRX2 (in words): GPCR reactivity screen; for MRGPRX2 (Antagonist) percent inhibition: antagonist mode, agonist challenge at EC80
Description: as §3, §1, §5

| Molecule | maximum inhibition (antagonism) CHRM2 [1] [%] | maximum inhibition (antagonism) MRGPRX2 [2] [%] | maximum inhibition (antagonism) EDG3 [3] [%] | CHRM2 (Agonist) percent activity [4] [%] | MRGPRX2 (Agonist) percent activity [5] [%] | antagonist activity against EDG3 (in words) [6] | EDG3 (Antagonist) percent inhibition [6] [%] | EDG3 (Agonist) percent activity [7] [%] | antagonist activity against CHRM2 (in words) [8] | CHRM2 (Antagonist) percent inhibition [8] [%] | antagonist activity against MRGPRX2 (in words) [9] | MRGPRX2 (Antagonist) percent inhibition [9] [%] |
| --- | --- | --- | --- | --- | --- | --- | --- | --- | --- | --- | --- | --- |
| CCCCCc1cc(O)c2c(c1)OC(C)(CCC=C(C)C)C=C2 (centres unmarked) [CBC, cannabichromene] | 85 | 91 | 43 | 12 | 9 | strong to moderate antagonist activity | 48 | −1 | strong to moderate antagonist activity | 89 | strong to moderate antagonist activity | 89 |
| CCCCCc1cc(O)c(C/C=C(\C)CCC=C(C)C)c(O)c1 [CBG, cannabigerol] | 13 | 92 | 36 | 0 | 2 | – | 42 | 8 | – | 20 | antagonist activity | 96 |
| CCCCCc1cc2c(c(O)c1C(=O)O)C=CC(C)(CCC=C(C)C)O2 (centres unmarked) [CBCA, cannabichromenic acid] | – | 35 | 25 | −1 | 4 | do not exhibit an antagonistic effect | 32 | 1 | do not exhibit an antagonistic effect | 7 | do not exhibit an antagonistic effect; also recorded: antagonist activity | 49 |
| C=C(C)[C@@H]1CCC(C)=C[C@H]1c1c(O)cc(CCCCC)cc1O [CBD, cannabidol] | 75 | 96 | 30 | 12 | 11 | – | 35 | 2 | antagonist activity | 81 | antagonist activity | 85 |
| (+)-cannabidiol [(+)-CBD] | 62 | 94 | 24 | 7 | 9 | strong to moderate antagonist activity | 55 | 21 | strong to moderate antagonist activity | 67 | strong to moderate antagonist activity | 92 |
